Assay results published in ChEMBL document CHEMBL5291721, “A preclinical secondary pharmacology resource illuminates target-adverse drug reaction associations of marketed drugs” (Nat Commun, 2023).

Experiments:
[1] = target: T1, Alpha-2A adrenergic receptor (Homo sapiens, UniProt P08913)
T1 sequence (P08913 whole entry): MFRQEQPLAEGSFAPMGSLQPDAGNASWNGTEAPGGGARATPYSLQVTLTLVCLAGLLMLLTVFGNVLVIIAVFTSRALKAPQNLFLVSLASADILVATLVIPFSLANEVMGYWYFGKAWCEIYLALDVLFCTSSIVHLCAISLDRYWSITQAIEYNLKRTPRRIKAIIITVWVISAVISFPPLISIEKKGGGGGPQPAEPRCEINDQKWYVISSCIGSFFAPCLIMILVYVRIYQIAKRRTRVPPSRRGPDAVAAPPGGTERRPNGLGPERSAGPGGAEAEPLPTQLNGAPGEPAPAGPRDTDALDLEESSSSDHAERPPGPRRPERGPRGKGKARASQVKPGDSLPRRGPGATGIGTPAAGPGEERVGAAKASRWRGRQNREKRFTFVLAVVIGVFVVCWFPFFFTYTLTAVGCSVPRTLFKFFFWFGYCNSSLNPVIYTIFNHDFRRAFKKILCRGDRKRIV

[2] = target: Neuronal acetylcholine receptor subunit alpha-4 (Homo sapiens, UniProt P43681)
Sequence of Neuronal acetylcholine receptor subunit alpha-4 (P43681 whole entry): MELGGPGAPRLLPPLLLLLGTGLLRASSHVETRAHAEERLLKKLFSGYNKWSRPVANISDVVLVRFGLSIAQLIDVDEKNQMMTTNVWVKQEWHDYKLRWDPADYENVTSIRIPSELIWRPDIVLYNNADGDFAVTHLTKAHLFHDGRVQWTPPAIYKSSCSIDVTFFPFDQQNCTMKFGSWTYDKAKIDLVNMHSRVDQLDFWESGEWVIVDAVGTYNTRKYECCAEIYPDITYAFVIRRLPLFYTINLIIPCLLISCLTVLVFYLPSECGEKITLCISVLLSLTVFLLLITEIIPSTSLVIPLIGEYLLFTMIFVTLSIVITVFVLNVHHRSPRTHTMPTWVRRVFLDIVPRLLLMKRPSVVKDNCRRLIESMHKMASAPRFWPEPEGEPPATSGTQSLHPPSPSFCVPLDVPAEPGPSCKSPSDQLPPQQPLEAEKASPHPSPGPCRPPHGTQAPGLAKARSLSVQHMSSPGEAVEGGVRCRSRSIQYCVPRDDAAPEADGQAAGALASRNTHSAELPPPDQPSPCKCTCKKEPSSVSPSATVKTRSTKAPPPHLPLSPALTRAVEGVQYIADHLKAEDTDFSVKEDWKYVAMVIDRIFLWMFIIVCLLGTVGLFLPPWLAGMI

Cannabinoid receptor 1 = Cannabinoid receptor 1 (Homo sapiens, UniProt P21554); type: functional, cell-based
Sequence of Cannabinoid receptor 1 (P21554 whole entry): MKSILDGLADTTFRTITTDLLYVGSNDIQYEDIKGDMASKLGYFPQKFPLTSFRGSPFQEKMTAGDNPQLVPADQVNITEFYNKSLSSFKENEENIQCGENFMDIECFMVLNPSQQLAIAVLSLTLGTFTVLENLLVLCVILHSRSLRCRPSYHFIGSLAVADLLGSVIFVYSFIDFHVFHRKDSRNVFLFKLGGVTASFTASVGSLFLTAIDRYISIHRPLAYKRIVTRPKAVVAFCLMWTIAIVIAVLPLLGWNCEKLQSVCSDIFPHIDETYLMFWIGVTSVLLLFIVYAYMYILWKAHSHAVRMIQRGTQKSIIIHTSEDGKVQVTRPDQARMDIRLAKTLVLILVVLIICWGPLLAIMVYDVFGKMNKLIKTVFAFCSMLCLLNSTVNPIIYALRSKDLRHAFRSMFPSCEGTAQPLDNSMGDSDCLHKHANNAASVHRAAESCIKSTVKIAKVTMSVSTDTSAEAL

D(1A) dopamine receptor = D(1A) dopamine receptor (Homo sapiens, UniProt P21728); type: functional, cell-based
Sequence of D(1A) dopamine receptor (P21728 whole entry): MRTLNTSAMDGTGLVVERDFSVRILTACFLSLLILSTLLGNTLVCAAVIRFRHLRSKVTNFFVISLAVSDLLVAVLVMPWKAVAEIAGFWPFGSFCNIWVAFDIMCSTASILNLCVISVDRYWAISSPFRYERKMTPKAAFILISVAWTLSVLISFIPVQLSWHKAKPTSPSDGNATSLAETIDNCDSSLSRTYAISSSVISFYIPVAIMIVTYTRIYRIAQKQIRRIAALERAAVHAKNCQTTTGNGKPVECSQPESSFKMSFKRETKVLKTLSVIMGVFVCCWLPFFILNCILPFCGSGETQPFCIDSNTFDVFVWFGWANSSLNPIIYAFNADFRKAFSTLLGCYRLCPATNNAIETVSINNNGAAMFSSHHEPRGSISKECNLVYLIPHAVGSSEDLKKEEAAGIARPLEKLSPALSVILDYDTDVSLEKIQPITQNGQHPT

[3] = target: T2, 5-hydroxytryptamine receptor 3A (Homo sapiens, UniProt P46098); type: functional
T2 sequence (P46098 whole entry): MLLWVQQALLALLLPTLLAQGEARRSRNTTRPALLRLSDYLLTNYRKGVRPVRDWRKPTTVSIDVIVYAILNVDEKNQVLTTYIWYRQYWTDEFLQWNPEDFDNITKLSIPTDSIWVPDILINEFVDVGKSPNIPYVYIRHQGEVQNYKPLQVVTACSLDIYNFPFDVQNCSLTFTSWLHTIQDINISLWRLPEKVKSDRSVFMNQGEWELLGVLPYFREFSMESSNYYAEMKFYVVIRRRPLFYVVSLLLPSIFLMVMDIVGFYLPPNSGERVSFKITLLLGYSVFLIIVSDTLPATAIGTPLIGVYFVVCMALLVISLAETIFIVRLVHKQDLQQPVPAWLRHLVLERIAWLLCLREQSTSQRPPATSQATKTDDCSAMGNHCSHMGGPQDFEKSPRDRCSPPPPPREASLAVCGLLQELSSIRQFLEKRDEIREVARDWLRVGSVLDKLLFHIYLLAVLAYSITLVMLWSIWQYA

Progesterone receptor = target: T3, Progesterone receptor (Homo sapiens, UniProt P06401)
T3 sequence (P06401 whole entry): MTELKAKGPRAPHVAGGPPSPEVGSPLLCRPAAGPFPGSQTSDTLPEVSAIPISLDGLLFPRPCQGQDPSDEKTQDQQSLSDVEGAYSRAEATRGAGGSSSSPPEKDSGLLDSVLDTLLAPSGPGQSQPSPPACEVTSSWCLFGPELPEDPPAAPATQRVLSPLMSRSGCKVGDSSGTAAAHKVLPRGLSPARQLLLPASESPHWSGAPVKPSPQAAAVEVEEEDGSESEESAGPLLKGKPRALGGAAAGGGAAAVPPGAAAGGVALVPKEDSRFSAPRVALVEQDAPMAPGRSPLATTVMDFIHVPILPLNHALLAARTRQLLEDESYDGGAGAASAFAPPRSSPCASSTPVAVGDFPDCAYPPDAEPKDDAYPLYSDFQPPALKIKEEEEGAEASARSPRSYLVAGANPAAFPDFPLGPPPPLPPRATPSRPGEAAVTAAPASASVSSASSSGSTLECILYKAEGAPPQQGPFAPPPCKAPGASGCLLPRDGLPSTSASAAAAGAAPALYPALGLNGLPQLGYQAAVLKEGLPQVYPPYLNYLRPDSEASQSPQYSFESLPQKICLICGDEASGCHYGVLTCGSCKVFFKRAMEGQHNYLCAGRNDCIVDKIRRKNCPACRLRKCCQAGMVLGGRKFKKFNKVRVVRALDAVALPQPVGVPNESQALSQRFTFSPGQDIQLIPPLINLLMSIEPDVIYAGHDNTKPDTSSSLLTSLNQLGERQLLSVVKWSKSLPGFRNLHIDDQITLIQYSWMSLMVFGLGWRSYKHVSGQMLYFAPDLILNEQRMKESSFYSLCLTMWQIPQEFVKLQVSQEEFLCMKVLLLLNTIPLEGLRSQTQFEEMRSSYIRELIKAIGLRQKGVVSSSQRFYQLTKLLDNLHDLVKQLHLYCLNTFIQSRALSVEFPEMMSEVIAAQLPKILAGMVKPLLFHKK

D(3) dopamine receptor = D(3) dopamine receptor (Homo sapiens, UniProt P35462)
Sequence of D(3) dopamine receptor (P35462 whole entry): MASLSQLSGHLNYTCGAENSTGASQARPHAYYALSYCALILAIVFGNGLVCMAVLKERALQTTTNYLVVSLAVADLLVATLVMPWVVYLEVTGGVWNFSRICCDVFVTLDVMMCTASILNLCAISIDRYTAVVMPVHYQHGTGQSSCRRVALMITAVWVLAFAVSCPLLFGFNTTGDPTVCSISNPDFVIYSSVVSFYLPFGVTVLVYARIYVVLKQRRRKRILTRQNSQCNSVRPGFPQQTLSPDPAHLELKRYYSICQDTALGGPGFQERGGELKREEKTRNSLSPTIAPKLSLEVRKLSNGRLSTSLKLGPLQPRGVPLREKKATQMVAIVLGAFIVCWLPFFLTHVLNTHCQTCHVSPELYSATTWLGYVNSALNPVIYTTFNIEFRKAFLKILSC

[4] = target: Gamma-aminobutyric acid receptor subunit alpha-1 (Rattus norvegicus, UniProt P62813)
Sequence of Gamma-aminobutyric acid receptor subunit alpha-1 (P62813 whole entry): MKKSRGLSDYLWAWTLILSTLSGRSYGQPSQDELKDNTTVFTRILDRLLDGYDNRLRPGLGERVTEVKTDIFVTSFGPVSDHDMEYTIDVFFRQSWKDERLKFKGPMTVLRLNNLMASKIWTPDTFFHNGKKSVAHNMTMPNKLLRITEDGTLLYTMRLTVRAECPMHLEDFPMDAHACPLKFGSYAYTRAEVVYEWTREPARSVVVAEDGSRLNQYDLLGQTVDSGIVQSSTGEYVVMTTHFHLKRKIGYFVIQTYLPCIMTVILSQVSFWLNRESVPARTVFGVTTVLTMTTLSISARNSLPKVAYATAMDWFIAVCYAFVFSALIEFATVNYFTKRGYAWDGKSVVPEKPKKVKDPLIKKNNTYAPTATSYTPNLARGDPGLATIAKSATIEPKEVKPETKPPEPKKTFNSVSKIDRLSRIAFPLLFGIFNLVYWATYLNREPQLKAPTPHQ

Histamine H2 receptor = Histamine H2 receptor (Homo sapiens, UniProt P25021); type: functional, cell-based
Sequence of Histamine H2 receptor (P25021 whole entry): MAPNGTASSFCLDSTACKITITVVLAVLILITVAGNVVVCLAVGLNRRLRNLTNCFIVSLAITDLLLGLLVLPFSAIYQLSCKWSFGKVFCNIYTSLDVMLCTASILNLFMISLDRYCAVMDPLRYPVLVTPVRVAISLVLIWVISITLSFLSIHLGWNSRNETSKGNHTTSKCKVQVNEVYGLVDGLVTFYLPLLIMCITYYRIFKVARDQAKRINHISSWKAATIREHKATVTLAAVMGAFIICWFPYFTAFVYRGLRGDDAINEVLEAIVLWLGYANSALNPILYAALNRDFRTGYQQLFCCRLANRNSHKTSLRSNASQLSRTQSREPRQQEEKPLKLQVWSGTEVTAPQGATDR

[5] = target: Kappa-type opioid receptor (Homo sapiens, UniProt P41145)
Sequence of Kappa-type opioid receptor (P41145 whole entry): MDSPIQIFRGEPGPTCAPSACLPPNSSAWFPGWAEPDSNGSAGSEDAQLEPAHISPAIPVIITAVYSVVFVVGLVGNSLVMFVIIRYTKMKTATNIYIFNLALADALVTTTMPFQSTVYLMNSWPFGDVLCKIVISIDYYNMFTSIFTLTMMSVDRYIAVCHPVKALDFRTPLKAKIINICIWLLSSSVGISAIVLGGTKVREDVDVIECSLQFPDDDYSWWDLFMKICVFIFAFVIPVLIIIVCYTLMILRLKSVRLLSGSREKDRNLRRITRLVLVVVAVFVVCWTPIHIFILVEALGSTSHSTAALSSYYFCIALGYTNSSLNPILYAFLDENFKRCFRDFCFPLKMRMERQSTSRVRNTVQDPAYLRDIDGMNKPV

[6] = target: T4, Gastrin/cholecystokinin type B receptor (Homo sapiens, UniProt P32239)
T4 sequence (P32239 whole entry): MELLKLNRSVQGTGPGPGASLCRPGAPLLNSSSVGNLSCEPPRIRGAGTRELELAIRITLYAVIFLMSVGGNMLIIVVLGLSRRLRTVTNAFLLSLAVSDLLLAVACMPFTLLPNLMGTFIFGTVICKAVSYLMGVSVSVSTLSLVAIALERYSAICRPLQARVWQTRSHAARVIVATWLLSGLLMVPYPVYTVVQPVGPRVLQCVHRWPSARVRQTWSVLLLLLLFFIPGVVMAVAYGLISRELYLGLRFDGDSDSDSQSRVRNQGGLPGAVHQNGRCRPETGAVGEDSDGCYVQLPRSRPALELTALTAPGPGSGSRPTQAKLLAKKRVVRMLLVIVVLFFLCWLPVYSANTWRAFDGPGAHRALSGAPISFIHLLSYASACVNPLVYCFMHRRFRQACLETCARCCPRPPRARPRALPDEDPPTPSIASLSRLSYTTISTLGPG
Also: assay procedure not described here.

C#Cc1cccc(Nc2ncnc3cc(OCCOC)c(OCCOC)cc23)c1 [ERLOTINIB]
AC50 [1]: > 30 µM
AC50 [2]: > 30 µM
AC50 (Cannabinoid receptor 1): > 30 µM
AC50 (D(1A) dopamine receptor): > 30 µM
AC50 [3]: > 30 µM
AC50 (Progesterone receptor): > 30 µM
AC50 (D(3) dopamine receptor): > 30 µM

CCC(=O)O[C@@H](O[P@](=O)(CCCCc1ccccc1)CC(=O)N1C[C@H](C2CCCCC2)C[C@H]1C(=O)O)C(C)C [FOSINOPRIL]
AC50 [1]: > 30 µM
AC50 (Cannabinoid receptor 1): > 30 µM
AC50 (D(1A) dopamine receptor): > 30 µM
AC50 [4]: > 30 µM
AC50 (Histamine H2 receptor): > 30 µM
AC50 [3]: > 30 µM
AC50 [5]: > 30 µM
AC50 (Progesterone receptor): > 30 µM
AC50 (D(3) dopamine receptor): > 30 µM

CC(=O)/N=c1/sc(S(N)(=O)=O)nn1C [METHAZOLAMIDE]
AC50 [1]: > 30 µM
AC50 [2]: > 10 µM
AC50 (D(1A) dopamine receptor): > 10 µM
AC50 [4]: > 10 µM
AC50 (Histamine H2 receptor): > 10 µM
AC50 [3]: > 30 µM
AC50 [5]: > 10 µM
AC50 (Progesterone receptor): > 30 µM
AC50 (D(3) dopamine receptor): > 30 µM

CC(=O)Oc1ccccc1C(=O)Nc1ncc([N+](=O)[O-])s1 [NITAZOXANIDE]
AC50 [1]: > 30 µM
AC50 [6]: 10 µM
AC50 [2]: 8.8 µM
AC50 (Cannabinoid receptor 1): > 30 µM
AC50 (D(1A) dopamine receptor): > 30 µM
AC50 [4]: > 30 µM
AC50 (Histamine H2 receptor): > 30 µM
AC50 [3]: 3.1 µM
AC50 [5]: > 30 µM
AC50 (Progesterone receptor): > 30 µM
AC50 (D(3) dopamine receptor): 25 µM

CN(C)c1cc(CNCC(C)(C)C)c(O)c2c1C[C@H]1C[C@H]3[C@H](N(C)C)C(O)=C(C(N)=O)C(=O)[C@@]3(O)C(O)=C1C2=O [OMADACYCLINE]
AC50 [1]: > 30 µM
AC50 [6]: > 30 µM
AC50 [2]: > 30 µM
AC50 (Cannabinoid receptor 1): > 30 µM
AC50 (D(1A) dopamine receptor): > 30 µM
AC50 [4]: > 30 µM
AC50 (Histamine H2 receptor): > 30 µM
AC50 [3]: 25 µM
AC50 (Progesterone receptor): > 30 µM
AC50 (D(3) dopamine receptor): 27 µM

CC(C)[N+](C)(CCOC(=O)C1c2ccccc2Oc2ccccc21)C(C)C [PROPANTHELINE]
AC50 [1]: > 30 µM
AC50 (Progesterone receptor): > 30 µM

CNC(=O)c1cc(Oc2ccc(NC(=O)Nc3ccc(Cl)c(C(F)(F)F)c3)c(F)c2)ccn1 [REGORAFENIB]
AC50 [1]: > 10 µM
AC50 [2]: > 30 µM
AC50 (D(1A) dopamine receptor): > 30 µM
AC50 (Progesterone receptor): > 3 µM
AC50 (D(3) dopamine receptor): > 30 µM

CN(C)C(=O)c1nc(CNC(=O)CN)n(-c2ccc(Cl)cc2C(=O)c2ccccc2Cl)n1 [RILMAZAFONE]
AC50 [1]: > 30 µM
AC50 (Progesterone receptor): > 30 µM

NC(=O)NS(=O)(=O)c1ccc(N)cc1 [SULFACARBAMIDE]
AC50 [1]: > 30 µM
AC50 (Progesterone receptor): > 30 µM

CCCCCCCCNC(C)C(O)c1ccc(SC(C)C)cc1 (stereo not given) [SULOCTIDIL]
AC50 [1]: 6.75 µM
AC50 (Progesterone receptor): > 30 µM

CCCCNc1ccc(C(=O)OCCN(C)C)cc1 [TETRACAINE]
AC50 [1]: > 30 µM
AC50 [6]: > 30 µM
AC50 [2]: > 10 µM
AC50 (Cannabinoid receptor 1): > 30 µM
AC50 (D(1A) dopamine receptor): > 10 µM
AC50 [4]: > 10 µM
AC50 (Histamine H2 receptor): > 10 µM
AC50 [3]: > 10 µM
AC50 [5]: > 10 µM
AC50 (Progesterone receptor): > 30 µM
AC50 (D(3) dopamine receptor): 22 µM

Cn1c(=O)c2[nH]cnc2n(C)c1=O [THEOPHYLLINE]
AC50 [1]: > 30 µM
AC50 [6]: > 30 µM
AC50 [2]: > 10 µM
AC50 (Cannabinoid receptor 1): > 30 µM
AC50 (D(1A) dopamine receptor): > 10 µM
AC50 [4]: > 10 µM
AC50 (Histamine H2 receptor): > 10 µM
AC50 [3]: > 30 µM
AC50 [5]: > 10 µM
AC50 (Progesterone receptor): > 30 µM
AC50 (D(3) dopamine receptor): > 30 µM

CN1CCN(CCCN2c3ccccc3Sc3ccc(S(=O)(=O)N(C)C)cc32)CC1 [THIOPROPERAZINE]
AC50 [1]: 1.42 µM
AC50 (Cannabinoid receptor 1): > 30 µM
AC50 (D(1A) dopamine receptor): > 30 µM
AC50 [4]: > 30 µM
AC50 (Histamine H2 receptor): > 30 µM
AC50 [3]: > 30 µM
AC50 [5]: > 30 µM
AC50 (Progesterone receptor): > 30 µM
AC50 (D(3) dopamine receptor): 0.031 µM

CC1(C)O[C@@H]2[C@@H](CO[C@@]3(COS(N)(=O)=O)OC(C)(C)O[C@@H]23)O1 [TOPIRAMATE]
AC50 [1]: > 30 µM
AC50 [6]: > 30 µM
AC50 [2]: > 10 µM
AC50 (Cannabinoid receptor 1): > 30 µM
AC50 (D(1A) dopamine receptor): > 10 µM
AC50 [4]: > 10 µM
AC50 (Histamine H2 receptor): > 10 µM
AC50 [3]: > 10 µM
AC50 [5]: > 10 µM
AC50 (Progesterone receptor): > 30 µM
AC50 (D(3) dopamine receptor): > 10 µM

NCCc1ccc(O)cc1 [TYRAMINE]
AC50 [1]: 22 µM
AC50 (Progesterone receptor): > 30 µM

CCCCCCCCCCCCCCCC(=O)OC/C=C(C)/C=C/C=C(C)/C=C/C1=C(C)CCCC1(C)C [VITAMIN A PALMITATE]
AC50 [1]: > 30 µM
AC50 (Progesterone receptor): > 30 µM
